Active and inactive are the calls of the source.
Tests used:
[1] = molecular target: T1, Corticotropin-releasing factor receptor 2/Corticotropin-releasing factor-binding protein (Homo sapiens, UniProt P24387+Q13324); experiment: activators of CRF receptor 2 with binding protein – uHTS hits, confirmation (AID 602473); format: functional; conditions: read-out: EC50_Mean
T1 sequence (Q13324 whole entry): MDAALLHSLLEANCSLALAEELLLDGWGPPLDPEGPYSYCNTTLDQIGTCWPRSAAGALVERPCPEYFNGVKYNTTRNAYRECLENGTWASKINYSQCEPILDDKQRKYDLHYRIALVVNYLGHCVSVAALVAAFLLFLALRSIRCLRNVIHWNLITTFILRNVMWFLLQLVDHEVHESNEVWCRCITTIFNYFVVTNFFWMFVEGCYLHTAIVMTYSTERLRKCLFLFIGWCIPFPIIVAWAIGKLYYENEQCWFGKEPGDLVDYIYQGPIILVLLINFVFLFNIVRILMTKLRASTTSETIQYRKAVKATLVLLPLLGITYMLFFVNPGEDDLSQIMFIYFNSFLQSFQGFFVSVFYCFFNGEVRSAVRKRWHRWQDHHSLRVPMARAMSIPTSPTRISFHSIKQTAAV
T1 sequence (P24387 whole entry): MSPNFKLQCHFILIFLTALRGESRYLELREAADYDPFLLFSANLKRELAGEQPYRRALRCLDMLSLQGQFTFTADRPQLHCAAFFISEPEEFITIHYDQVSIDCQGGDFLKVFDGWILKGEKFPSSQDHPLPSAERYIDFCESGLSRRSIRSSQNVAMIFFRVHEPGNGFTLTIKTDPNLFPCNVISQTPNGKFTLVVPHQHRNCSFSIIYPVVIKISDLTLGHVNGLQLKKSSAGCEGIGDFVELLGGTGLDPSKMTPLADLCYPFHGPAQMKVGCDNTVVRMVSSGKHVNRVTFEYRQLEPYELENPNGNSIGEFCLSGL

[2] = molecular target: T2, DNA repair and recombination protein RAD54-like (Homo sapiens, UniProt Q92698); experiment: inhibitors of human RAD54 branch migration, confirmation, biochemical, fluorescence, cherry-picked samples, dose series (AID 651657); format: functional
T2 sequence (Q92698 whole entry): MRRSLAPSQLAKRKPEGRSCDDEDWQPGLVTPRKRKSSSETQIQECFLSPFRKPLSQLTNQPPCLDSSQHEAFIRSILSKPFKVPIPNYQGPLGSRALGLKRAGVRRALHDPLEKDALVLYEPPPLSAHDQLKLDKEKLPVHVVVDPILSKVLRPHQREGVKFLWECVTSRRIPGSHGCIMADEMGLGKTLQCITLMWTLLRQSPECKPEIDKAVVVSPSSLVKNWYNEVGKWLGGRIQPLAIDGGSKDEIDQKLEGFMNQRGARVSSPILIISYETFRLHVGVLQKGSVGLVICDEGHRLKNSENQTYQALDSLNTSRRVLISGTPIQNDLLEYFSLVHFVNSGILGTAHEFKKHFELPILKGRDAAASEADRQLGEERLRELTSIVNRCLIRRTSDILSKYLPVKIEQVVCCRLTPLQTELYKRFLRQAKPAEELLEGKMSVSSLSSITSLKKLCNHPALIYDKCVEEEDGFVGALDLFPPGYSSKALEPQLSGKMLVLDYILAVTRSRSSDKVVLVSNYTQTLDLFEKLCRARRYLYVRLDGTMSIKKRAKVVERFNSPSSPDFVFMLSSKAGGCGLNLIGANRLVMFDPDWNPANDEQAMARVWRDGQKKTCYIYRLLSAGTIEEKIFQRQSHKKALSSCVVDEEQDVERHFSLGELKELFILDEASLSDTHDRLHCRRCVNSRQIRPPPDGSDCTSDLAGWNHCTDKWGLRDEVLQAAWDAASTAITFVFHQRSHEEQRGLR

[3] = molecular target: T3, Ubiquitin-conjugating enzyme E2 N (Homo sapiens, UniProt P61088); format: functional;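 further: Dose-response confirmation in a TR-FRET assay detecting UBC13-driven polyubiquitin chain formation, inhibition measured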
T3 sequence (P61088 whole entry): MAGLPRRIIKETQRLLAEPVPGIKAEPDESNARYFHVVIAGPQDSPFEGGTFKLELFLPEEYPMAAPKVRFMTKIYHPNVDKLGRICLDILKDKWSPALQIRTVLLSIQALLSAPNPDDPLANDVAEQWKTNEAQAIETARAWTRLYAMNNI

[4] = molecular target: T4, Endoribonuclease toxin MazF (Escherichia coli K-12, UniProt P0AE70); experiment: MazF toxin RNase activators, dose response, biochemical, fluorescence, single-stranded RNA substrate, uHTS hits (AID 588481); format: functional
T4 sequence (P0AE70 whole entry): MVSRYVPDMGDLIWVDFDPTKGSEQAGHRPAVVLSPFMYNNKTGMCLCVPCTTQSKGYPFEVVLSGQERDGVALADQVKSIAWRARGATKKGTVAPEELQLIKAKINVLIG

[5] = molecular target: T4, Endoribonuclease toxin MazF; experiment: fluorescent RNA oligo signal without MazF, dose response, counter-screen for MazEF activator project, biochemical, fluorescence, single-stranded RNase substrate (AID 588502); format: functional
[6] = molecular target: DNA dC->dU-editing enzyme APOBEC-3G (Homo sapiens, UniProt Q9HC16); experiment: Dose Response confirmation of small molecule APOBEC3G DNA Deaminase Inhibitors via a fluorescence-based single-stranded DNA deaminase assay. [Related pubchem assays (depositor defined):AID493012, AID493028]; format: functional
H4 = experiment: Luminescence Cell-Based Dose Response HTS to Identify Activators of 5'UTR Stem-Loop Driven Prion Protein mRNA Translation in H4 Neuroglioblastoma Cells. [Related pubchem assays: 1829 (Project Summary), 1814 (Primary HTS)]; format: functional; conditions: Homo sapiens
[7] = Luminescence Cell-Based Dose Response HTS to Identify Activators of Luciferase Translation or Activity in H4 […] Cells. [Related pubchem assays: 1829 (Project Summary), 1814 (Primary HTS)]; format: functional
[8] = Luminescence Cell-Based Dose Confirmation HTS to Identify Activators of 5'UTR Stem-Loop Driven Alpha-Synuclein mRNA Translation in H4 Neuroglioblastoma Cells. [Related pubchem assays: 1829 (Project Summary), 1814 (Primary HTS)]; format: functional
cells [9] = format: functional, cell-based
cells [10] = format: functional, cell-based; remark: listed apart in the source
H9c2 = experiment: cells; format: functional, cell-based; conditions: Rattus norvegicus, H9c2, Myocardium;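 further: confirmatory concentration-response retest of ultra-high-throughput screening hits for modulation of myocardial damage; cell death induced by hydrogen peroxide oxidative stress; compound pretreatment for 60 min then peroxide exposure for 2 h; potency is for protecting the cells against peroxide damage rather than for killing them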
[11] = ZM109 Env clade C HIV-1 fusion inhibitors, dose response, HeLa effector, CEM target cells, luciferase, cherry-pick (AID 652058); format: functional, cell-based
[12] = inhibitors of clade B AD8 Env fusion, dose response, cell-based, cherry-pick (AID 652062); format: functional;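 further: luciferase signal from cell-cell fusion driven by HIV-1 clade B AD8 Env; potency is for inhibitors of fusion seen as a drop in luminescence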
[13] = inhibitors of HIV Env-driven cell fusion, dose response, cherry-pick (AID 652057); format: functional, cell-based
[14] = off-target signal loss in HeLa-CEM21 co-culture – HeLa F-luc CTL cells, cherry-picked, counter-screen for HIV-1 Env fusion inhibitor project, dose response (AID 652040); format: functional, cell-based;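 further: potency for signal decrease marking cytotoxic or nonspecific inhibition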
cells [15] = format: functional
[16] = THP-1 cell cytotoxicity, dose response, cytotoxicity control for non-replicating M. tuberculosis project (AID 489025); format: functional
Leucine aminopeptidase = molecular target: T5, Leucine aminopeptidase (Plasmodium falciparum 3D7, UniProt Q8IL11); experiment: P. falciparum M17LAP inhibitors, primary screen, biochemical, fluorogenic H-Leu-NHMec substrate, 1536-well (AID 1619); format: functional
T5 sequence (Q8IL11 whole entry): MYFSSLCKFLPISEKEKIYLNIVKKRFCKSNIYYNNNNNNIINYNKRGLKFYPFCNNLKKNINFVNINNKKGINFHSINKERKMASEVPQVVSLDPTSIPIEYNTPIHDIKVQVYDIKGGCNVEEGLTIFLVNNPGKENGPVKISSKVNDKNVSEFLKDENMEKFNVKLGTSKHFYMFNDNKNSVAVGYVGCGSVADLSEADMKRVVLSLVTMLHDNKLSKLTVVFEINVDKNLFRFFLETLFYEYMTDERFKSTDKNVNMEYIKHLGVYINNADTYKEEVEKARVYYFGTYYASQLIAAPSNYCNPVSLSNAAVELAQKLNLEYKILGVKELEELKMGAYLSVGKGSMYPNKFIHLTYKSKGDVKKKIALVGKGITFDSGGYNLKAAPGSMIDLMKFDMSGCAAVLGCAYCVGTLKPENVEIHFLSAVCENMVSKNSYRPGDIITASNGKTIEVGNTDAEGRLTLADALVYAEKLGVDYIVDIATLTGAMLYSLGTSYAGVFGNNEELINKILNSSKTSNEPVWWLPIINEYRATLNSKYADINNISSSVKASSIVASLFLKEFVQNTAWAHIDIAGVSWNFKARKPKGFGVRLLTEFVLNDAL

[17] = molecular target: Heat shock protein HSP 90-alpha (Homo sapiens, UniProt P07900); format: functional, organism-based
[18] = inhibitors of intracellular T. cruzi replication, confirmation, NIH3T3 host cells, beta-gal luminescence (AID 2044); format: functional, cell-based;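 further: intracellular parasites grown in NIH/3T3 mouse fibroblasts as host cells; luminescent beta-galactosidase reporter signal from transgenic T. cruzi replicating inside host cells; inhibitors lower the luminescence signal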
[19] = cytotoxicity toward NIH3T3 fibroblasts, dose response, counter-screen, cell-based, ATP luminescence, mouse fibroblasts (AID 2010); format: functional;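 further: cells exposed to compound for about 90 hours before reading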
[20] = molecular target: T6, DNA repair protein RAD52 homolog (Homo sapiens, UniProt P43351); format: functional, biochemical
T6 sequence (P43351 whole entry): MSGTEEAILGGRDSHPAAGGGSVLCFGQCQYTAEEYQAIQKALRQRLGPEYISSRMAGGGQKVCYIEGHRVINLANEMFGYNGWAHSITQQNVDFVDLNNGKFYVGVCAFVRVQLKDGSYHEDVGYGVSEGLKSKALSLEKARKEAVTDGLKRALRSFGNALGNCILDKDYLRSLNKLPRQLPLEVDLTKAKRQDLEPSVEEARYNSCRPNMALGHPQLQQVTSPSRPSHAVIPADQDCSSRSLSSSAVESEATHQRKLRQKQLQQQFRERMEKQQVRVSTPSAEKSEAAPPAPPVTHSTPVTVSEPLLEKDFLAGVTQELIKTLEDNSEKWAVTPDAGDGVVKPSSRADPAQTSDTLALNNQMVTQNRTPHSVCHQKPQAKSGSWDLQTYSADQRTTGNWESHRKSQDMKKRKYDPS

Chain of DNA dC->dU-editing enzyme APOBEC-3G (Q9HC16 whole entry): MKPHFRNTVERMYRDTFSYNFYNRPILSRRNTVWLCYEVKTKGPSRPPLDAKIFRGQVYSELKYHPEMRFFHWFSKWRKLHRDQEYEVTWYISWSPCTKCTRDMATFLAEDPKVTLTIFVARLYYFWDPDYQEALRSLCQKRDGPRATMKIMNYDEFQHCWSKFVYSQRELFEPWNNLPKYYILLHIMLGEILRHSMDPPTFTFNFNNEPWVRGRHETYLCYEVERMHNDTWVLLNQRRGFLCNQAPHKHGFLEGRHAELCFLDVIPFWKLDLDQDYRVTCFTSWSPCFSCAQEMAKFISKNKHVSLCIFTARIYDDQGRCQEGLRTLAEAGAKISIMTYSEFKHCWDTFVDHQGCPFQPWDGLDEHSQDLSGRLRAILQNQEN

SMILES: COC(=O)c1c(NC(=O)c2ccco2)sc2c1CCN(C(C)C)C2
- EC50 [1]: > 53 µM (inactive)
- AC50 [2]: 25.4 µM (active)

SMILES: Cc1ccc(C(=O)N/C(=C/c2ccc(-c3cccc([N+](=O)[O-])c3)o2)C(=O)NCCCN(C)C)cc1
- IC50 [3]: > 20 µM (inactive)

SMILES: Cc1c(C(=O)Nc2ccc3c(c2)OCO3)sc2nc(-c3ccccc3)cn12
- EC50 [4]: > 99 µM (inactive)
- EC50 [5]: > 99 µM (inactive)

SMILES: COc1ccccc1NS(=O)(=O)c1cc(NC(=O)c2cccs2)ccc1N1CCCC1
- IC50 [6]: 37.1 µM (active)

SMILES: O=C(c1ccc2c(c1)ncn2C1CCCCC1)N1CCC2(CC1)OCCO2
- EC50 (H4): > 120 µM (not active)
- EC50 [7]: 6.5 µM (active)
- EC50 [8]: > 120 µM (not active)

SMILES: CN(C)C(CNC(=O)CCCN1C(=O)c2cccc3cccc(c23)C1=O)c1ccccc1 (centres undefined)
- AC50 [2]: 43.4 µM (active)

SMILES: C=CCn1c(S)nnc1-c1ccc2ncccc2c1
- IC50 [6]: 11.9 µM (active)

SMILES: CCOc1ccc2nc(NC(=S)N(C)C)sc2c1
- IC50 [6]: 62.4 µM (active)

SMILES: Cc1cc2ccc3ccccc3c2cc1CN(C)C
- EC50 (cells [9]): > 350 µM (not active)
- AC50 [2]: 38.3 µM (active)
- EC50 (cells [10]): > 350 µM (not active)

SMILES: COc1ccc(-c2cc(=O)oc3c(C)c(O)c(CN(C)C)cc23)cc1
- IC50 (H9c2): > 79 µM (inactive)
- AC50 [11]: 18.1 µM (active)
- AC50 [12]: 17.4 µM (active)
- AC50 [13]: 13 µM (active)
- AC50 [14]: 7.97 µM (active)

SMILES: N=C(Cc1cccs1)NOC(=O)COc1ccccc1Cl
- EC50 (H4): 46 µM (active)
- EC50 [7]: 50.4 µM (active)
- EC50 [8]: 7.6 µM (active)

SMILES: Nc1nc2ccccc2n1C(=O)c1ccc(F)cc1
- IC50 (cells [15]): 9.58 µM (active)
- CC50 [16]: > 40 µM (active)

SMILES: Cc1ccccc1C(=O)NCC(=O)NNC(=S)NC(=O)c1ccccc1
- IC50 (Leucine aminopeptidase): 47.4 µM (active)
- IC50 [3]: > 20 µM (inactive)

SMILES: CCOC(=O)c1ccc(N2C(=O)CC(N3CCC(C(=O)OCC)CC3)C2=O)cc1 (centres undefined)
- AC50 [17]: 7.24 µM (active)

SMILES: Sc1nc2ccccc2c2nc(-c3cccnc3)nn12
- IC50 [3]: > 20 µM (inactive)

SMILES: CCC(CC)COC(=O)C(C#N)c1nc2ccccc2nc1N1CCN(CC)CC1 (centres undefined)
- IC50 (cells [15]): 17.9 µM (active)
- EC50 [18]: 4.05 µM (active)
- CC50 [16]: 26.2 µM (active)
- EC50 [19]: > 60 µM (not active)

SMILES: COC(=O)C1=C(c2ccc(F)cc2OCc2ccccc2)C[C@@H]2CC[C@H]1N2C(=O)NC1CCN(Cc2ccccc2)CC1
- IC50 [3]: > 20 µM (inactive)

SMILES: C[C@@H](CN1CCC[C@H]1CN1C(N)=NC[C@@H]1Cc1ccccc1)N1C[C@@H](Cc2ccccc2)N(CCCC2CCCC2)C1=N
- IC50 [3]: > 20 µM (inactive)

SMILES: COC(=O)[C@@]1(C)[C@H]2C(=O)N(Cc3ccccc3)C(=O)[C@H]2[C@H]2CN=C(SCC3CC3)N21
- AC50 [11]: 2.3 µM (active)
- AC50 [12]: 7.31 µM (active)
- AC50 [13]: 2.13 µM (active)
- AC50 [14]: 2.95 µM (active)

SMILES: CC(=O)Nc1cccc(NC(=N)Nc2nc(C)cc(C)n2)c1
- AC50 [20]: 18.8 µM (active)

SMILES: Cn1cc(Cl)c(C(=O)N/N=C/c2ccc3c4c(cccc24)CC3)n1
- EC50 [4]: > 99 µM (inactive)
- EC50 [5]: > 99 µM (inactive)

SMILES: CC1(C(=O)N/N=C/c2ccc3c(c2)OCO3)CC1(Br)Br (centres undefined)
- AC50 [11]: 4.12 µM (active)
- AC50 [12]: 7.47 µM (active)
- AC50 [13]: 5.4 µM (active)
- AC50 [14]: 7.57 µM (active)

SMILES: C[C@]12CC[C@H](OC(=O)[C@@H](N)CCCCN)C[C@@H]1CC[C@@H]1[C@@H]2CC[C@@]2(C)[C@H]1CC[C@]2(C)O
- AC50 [20]: 1.93 µM (active)

SMILES: CN1CCc2c(sc(N)c2C(=O)O)C1
- AC50 [20]: 11.7 µM (active)

SMILES: CC(C)=CCc1c2c(c3occ(-c4ccc(O)c(O)c4)c(=O)c3c1O)C=CC(C)(C)O2 [POMIFERIN]
- AC50 [17]: 13.3 µM (active)
